The text below walks through data of patent EP4361137A1, “PRUNE1 INHIBITORS AND THERAPEUTIC USE THEREOF” (CEINGE Biotecnologie Avanzate Franco Salvatore s.c. a r.l., priority 2022, dated 2024).

The subject of one series is Prune1. The experiment in a line: Immunoblotting of Prune1 in MMTV-Prune1/Wnt1 cells. Type of series: cell-based, human and murine. Conditions: dose of 10 mM. As for the experimental part: (§1) D425.MED and MMTV-Prune1/Wnt1 cells were plated and treated with increasing concentrations of LEO-AA7.5(S)T for 24 hours. Water-treated cells were used as negative control for the experiments.
Cells for immunoblotting analysis were washed in cold PBS and lysed in cell lysis buffer [20 mM sodium phosphate (pH 7.4), 150 mM NaCl, 10% (v/v) glycerol, 1% (w/v) sodium deoxycholate, 1% (v/v) Triton X-100] supplemented with protease inhibitors (Roche). The resulting cell lysates were cleared by centrifugation at 16,200g for 10 min at room temperature, and the supernatants were re- moved and assayed for protein concentrations with the Protein Assay Dye Reagent (Bio-Rad). The cell lysates (30 µg) were resolved by SDS-polyacrylamide gel electrophoresis (SDS-PAGE) gels of different percentages, which depended on the molecular weights of the proteins of interest. The proteins were then electrophoretically transferred to polyvinylidene difluoride (PVDF) membranes (Millipore). After 1 hour in blocking solution with 5% (w/v) dry milk fat in PBS or 5% (w/v) BSA (Sigma-Aldrich) in tris-buffered saline [both of which contained 0.02% (v/v) Tween 20] […] The peak areas of the bands were measured on the densitometry plots, and the relative proportions (percentages) were calculated. […]

The test system of the next series is MMTV-Prune1/Wnt1 cells. The experiment in a line: Real-time cell proliferation assay (cell index, xCELLigence). Type of series: cell-based, murine. Conditions: 10 µM and 100 µM, dose dependent. The procedure: as §1
(§2) Cellular proliferation rates were determined with the xCELLigence system (Roche). D425-MED, MATH-Prune1/TP53-/- and MMTV-Prune1/Wnt1 cells (8 × 10^3) were treated with increasing concentrations of LEO-AA7.5(S)T, harvested, and then added to a single well of an xCELLigence E-plate 16. The proliferation rates were determined at 2-min intervals by measuring the impedance changes across the electrodes at the bottoms of the wells. These cell index values were calculated by the xCELLigence RTCA software. with vehicle-treated cells were the negative control. Impedance was measured every 2 min over 24 hours. The IC50 values were calculated through nonlinear regression analysis performed with Graph Pad Prism 9 ([inhibitor] vs. response (three parameters). Data are means ± SD of three independent experiments.

Series [1] has as its system MATH1-Prune1/TP53-/- cells. Described as above. Type of series: cell-based, murine. Conditions: impedance every 2 min over 24 h. The procedure: Primary murine TNBC cells from tumors generated by MMTV-Prune1/Wnt1 mice [Ferrucci et al., 2021] and Primary murine Medulloblastoma Group 3 cells from tumors generated MATH-Prune1/TP53-/- mice were obtained (2 months from tumor onset).
as §2

The nature of another series: Acute toxicity in vivo. Further details: species or system FVB mice. Conditions: for hepatotoxicity or nephrotoxicity (glutamate-pyruvate transaminase 1, creatinine blood levels, blood urea nitrogen): HCl salt. The procedure:
The toxicity of LEO-AA7.5(S)T was determined with 4-week-old FVB mice grouped according to body weight. Escalating doses of LEO-AA7.5(S)T (60mg or 120mg/kg/day) or vehicle (water) were administered intraperitoneally, daily for 12 days. At sacrifice, the blood and organs were collected and evaluated. Haematological and biochemical markers of hepatic and renal functions were evaluated. Data are expressed as means from four mice within each treatment group.

Setting [2] is: 60 and 120 mg/kg intraperitoneally, daily for 12 days.

SMILES strings stand for the structures.

In the case of `COc1ccc(CNc2ncnc(N3CCC[C@H](CO)C3)n2)cc1.Cl` [LEO-AA7.5(S)T, (S)-(1-(4-((4-methoxybenzyl)amino)-1,3,5-triazin-2-yl)piperidin-3-yl)methanol HCl salt], the “degradation of human and murine Prune protein” value with Prune1 is “enhance the degradation”. The proliferation rate entry in the series on MMTV-Prune1/Wnt1 cells was “reduction”. Further, the “half maximal inhibitory concentration (IC50) for the inhibition of cell proliferation index” value in series [1] is given as 31.1 µM. Besides, in the series “Acute toxicity in vivo” (60mg or 120mg/kg/day intraperitoneally for 12 days), the “liver, spleen and kidney weight, treated vs controls” value is “no decrease”. In “Acute toxicity in vivo” (setting [2]), the “haematological parameters (e.g. white blood cell count)” value was “no significant variations”; the immediate toxicity effects entry was “no immediate toxicity effects”; the “hepatotoxicity or nephrotoxicity (glutamate-pyruvate transaminase 1, creatinine blood levels, blood urea nitrogen)” value is “absence of drug-induced hepatotoxicity and renal failure”. In addition, the “hepatotoxicity or nephrotoxicity (glutamate-pyruvate transaminase 1, creatinine blood levels, blood urea nitrogen)” value in the series “Acute toxicity in vivo” (60 and 120 mg/kg intraperitoneally, daily for 12 days, listed as (S)-(1-(4-((4-methoxybenzyl)amino)-1,3,5-triazin-2-yl)piperidin-3-yl)methanol HC) is reported as “no signs of hepatotoxicity or nephrotoxicity”.
